Assay results: ChEMBL document CHEMBL4138259, “Discovery of JTZ-951: A HIF Prolyl Hydroxylase Inhibitor for the Treatment of Renal Anemia” (ACS Med Chem Lett, 2017)
Activity calls are given as the source filed them. The calls are words filed in the database; no cut-off is given here.

Key:
in vitro = settings: human, Caco-2
Mus musculus = test: Upregulation of plasma EPO level in Balb/c mouse at 10 mg/kg, po administered as single dose measured after 8 hrs by ELISA; type: functional
[1] = molecular target: Voltage-gated inwardly rectifying potassium channel KCNH2 (Homo sapiens, UniProt Q12809); test: Inhibition of human ERG expressed in HEK293 cells at holding potential of -80 mV by whole cell patch clamp method; type: cell-based
Voltage-gated inwardly rectifying potassium channel KCNH2, sequence (Q12809 whole entry): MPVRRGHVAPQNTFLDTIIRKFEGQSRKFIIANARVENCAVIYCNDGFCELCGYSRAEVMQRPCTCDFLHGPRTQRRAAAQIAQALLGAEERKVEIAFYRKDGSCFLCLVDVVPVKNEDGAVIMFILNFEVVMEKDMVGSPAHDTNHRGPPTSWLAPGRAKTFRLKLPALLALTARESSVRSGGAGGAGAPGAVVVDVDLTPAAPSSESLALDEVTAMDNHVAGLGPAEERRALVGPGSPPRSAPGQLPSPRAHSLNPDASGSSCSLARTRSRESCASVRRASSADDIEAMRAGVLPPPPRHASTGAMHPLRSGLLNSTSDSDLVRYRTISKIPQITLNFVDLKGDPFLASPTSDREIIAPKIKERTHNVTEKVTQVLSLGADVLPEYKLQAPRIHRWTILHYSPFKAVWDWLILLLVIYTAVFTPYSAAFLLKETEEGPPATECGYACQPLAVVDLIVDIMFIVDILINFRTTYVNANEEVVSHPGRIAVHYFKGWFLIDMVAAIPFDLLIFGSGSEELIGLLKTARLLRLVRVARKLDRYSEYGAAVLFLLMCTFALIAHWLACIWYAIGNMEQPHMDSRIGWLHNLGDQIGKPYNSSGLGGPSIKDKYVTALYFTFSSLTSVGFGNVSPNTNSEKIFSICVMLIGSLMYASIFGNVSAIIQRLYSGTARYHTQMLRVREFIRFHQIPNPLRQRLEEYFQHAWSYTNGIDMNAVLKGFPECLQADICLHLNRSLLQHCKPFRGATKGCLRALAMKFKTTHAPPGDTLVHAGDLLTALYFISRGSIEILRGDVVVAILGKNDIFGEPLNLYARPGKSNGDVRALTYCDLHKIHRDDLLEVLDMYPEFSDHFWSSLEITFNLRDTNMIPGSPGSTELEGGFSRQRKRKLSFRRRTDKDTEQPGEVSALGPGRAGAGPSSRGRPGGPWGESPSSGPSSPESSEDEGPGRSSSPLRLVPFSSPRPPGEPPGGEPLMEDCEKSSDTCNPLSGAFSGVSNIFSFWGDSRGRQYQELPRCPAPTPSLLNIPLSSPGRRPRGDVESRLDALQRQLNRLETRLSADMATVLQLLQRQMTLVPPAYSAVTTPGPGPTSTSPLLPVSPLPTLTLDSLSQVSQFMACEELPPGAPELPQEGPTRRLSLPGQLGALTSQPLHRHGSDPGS

Rattus norvegicus [2] = test: Toxicity in CD(SD) rat assessed as induction of anorexia at 100 mg/kg, po administered as single dose; type: organism-based; settings: in vivo
[3] = Total clearance in CD(SD) rat at 0.3 mg/kg, iv; type: ADME, organism-based; settings: in vivo
Cytochrome P450 2D6 = Cytochrome P450 2D6 (Homo sapiens, UniProt P10635); test: Inhibition of CYP2D6 in human liver microsomes by LC-MS/MS analysis; type: ADME
Cytochrome P450 2D6, sequence (P10635 whole entry): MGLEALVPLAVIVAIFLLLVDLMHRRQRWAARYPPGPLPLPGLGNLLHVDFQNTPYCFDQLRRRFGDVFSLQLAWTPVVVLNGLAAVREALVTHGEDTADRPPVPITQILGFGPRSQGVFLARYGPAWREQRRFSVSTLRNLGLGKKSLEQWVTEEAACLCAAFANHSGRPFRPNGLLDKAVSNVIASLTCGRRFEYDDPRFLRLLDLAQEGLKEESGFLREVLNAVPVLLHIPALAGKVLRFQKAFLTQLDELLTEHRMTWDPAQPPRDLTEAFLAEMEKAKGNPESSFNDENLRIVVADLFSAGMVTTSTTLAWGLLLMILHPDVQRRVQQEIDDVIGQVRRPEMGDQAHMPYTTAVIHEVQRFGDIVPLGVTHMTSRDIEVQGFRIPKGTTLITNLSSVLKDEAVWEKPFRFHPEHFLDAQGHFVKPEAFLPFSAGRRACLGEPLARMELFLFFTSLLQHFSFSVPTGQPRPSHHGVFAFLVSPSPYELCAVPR

Cytochrome P450 3A5 = Cytochrome P450 3A5 (Homo sapiens, UniProt P20815); test: Inhibition of CYP3A5 in human liver microsomes using midazolam as substrate by LC-MS/MS analysis; type: ADME
Cytochrome P450 3A5, sequence (P20815 whole entry): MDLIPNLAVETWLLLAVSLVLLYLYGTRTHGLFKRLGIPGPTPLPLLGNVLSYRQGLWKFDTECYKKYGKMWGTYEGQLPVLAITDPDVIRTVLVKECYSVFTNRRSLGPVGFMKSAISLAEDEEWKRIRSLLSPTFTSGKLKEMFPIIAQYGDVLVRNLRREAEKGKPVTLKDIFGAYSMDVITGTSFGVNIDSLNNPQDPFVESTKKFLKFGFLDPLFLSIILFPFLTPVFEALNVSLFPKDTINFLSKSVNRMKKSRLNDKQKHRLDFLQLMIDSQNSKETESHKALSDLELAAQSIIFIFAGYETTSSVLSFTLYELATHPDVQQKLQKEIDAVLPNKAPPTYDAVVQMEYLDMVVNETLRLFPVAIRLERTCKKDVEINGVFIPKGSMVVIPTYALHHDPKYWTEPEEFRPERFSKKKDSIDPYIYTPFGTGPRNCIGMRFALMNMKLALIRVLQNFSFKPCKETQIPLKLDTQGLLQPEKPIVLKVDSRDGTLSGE

[4] = Volume of distribution at steady state in CD(SD) rat at 0.3 mg/kg, iv; type: ADME, organism-based; settings: in vivo, read-out: Vdss
Cytochrome P450 2A6 = molecular target: T1, Cytochrome P450 2A6 (Homo sapiens, UniProt P11509); test: Inhibition of CYP2A6 in human liver microsomes by LC-MS/MS analysis; type: ADME
T1 sequence (P11509 whole entry): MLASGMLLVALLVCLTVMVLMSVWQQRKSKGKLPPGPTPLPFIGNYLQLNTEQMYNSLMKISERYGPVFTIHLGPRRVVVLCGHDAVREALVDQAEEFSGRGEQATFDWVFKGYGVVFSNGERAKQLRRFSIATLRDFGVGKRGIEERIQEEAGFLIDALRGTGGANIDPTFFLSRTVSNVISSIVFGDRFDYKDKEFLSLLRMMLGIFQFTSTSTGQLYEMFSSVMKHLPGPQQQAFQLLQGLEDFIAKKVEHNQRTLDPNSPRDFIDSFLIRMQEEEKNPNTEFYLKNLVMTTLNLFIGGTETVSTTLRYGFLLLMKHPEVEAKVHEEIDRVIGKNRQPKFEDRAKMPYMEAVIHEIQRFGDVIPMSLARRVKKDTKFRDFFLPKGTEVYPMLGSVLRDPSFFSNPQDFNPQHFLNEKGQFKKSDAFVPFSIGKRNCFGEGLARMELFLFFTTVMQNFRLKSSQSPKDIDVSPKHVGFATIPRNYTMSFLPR

[5] = Cmax in CD(SD) rat at 1 mg/kg, po; type: ADME, organism-based; parameters: dose 1 mg/kg, route oral; settings: in vivo
[6] = Metabolic stability in human pooled liver microsomes assessed as compound remaining at 10 uM after 120 mins in presence of NADPH by Radio-HPLC analysis; type: ADME, microsome; settings: read-out: Stability
[7] = Metabolic stability in Sprague-Dawley rat liver microsomes assessed as compound remaining at 10 uM after 120 mins in presence of NADPH by Radio-HPLC analysis; type: ADME, microsome; settings: read-out: Stability
Cytochrome P450 2B6 = molecular target: T2, Cytochrome P450 2B6 (Homo sapiens, UniProt P20813); test: Inhibition of CYP2B6 in human liver microsomes by LC-MS/MS analysis; type: ADME
T2 sequence (P20813 whole entry): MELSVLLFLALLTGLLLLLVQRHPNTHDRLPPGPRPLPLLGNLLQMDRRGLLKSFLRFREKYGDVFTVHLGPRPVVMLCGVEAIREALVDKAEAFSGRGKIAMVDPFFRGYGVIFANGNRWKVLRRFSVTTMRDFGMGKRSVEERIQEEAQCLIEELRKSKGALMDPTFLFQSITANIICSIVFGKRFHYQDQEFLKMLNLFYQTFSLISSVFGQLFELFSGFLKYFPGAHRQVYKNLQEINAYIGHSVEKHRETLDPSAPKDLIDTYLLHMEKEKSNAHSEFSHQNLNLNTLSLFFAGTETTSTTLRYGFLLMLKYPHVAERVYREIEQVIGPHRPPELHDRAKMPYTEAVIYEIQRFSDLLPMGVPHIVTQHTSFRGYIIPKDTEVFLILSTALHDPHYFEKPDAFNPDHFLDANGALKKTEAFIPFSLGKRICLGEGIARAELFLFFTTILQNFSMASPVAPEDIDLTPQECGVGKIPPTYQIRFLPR

Cytochrome P450 3A4 = Cytochrome P450 3A4 (Homo sapiens, UniProt P08684); test: Inhibition of CYP3A4 in human liver microsomes using midozolam as substrate by LC-MS/MS analysis; type: ADME
Cytochrome P450 3A4, sequence (P08684 whole entry): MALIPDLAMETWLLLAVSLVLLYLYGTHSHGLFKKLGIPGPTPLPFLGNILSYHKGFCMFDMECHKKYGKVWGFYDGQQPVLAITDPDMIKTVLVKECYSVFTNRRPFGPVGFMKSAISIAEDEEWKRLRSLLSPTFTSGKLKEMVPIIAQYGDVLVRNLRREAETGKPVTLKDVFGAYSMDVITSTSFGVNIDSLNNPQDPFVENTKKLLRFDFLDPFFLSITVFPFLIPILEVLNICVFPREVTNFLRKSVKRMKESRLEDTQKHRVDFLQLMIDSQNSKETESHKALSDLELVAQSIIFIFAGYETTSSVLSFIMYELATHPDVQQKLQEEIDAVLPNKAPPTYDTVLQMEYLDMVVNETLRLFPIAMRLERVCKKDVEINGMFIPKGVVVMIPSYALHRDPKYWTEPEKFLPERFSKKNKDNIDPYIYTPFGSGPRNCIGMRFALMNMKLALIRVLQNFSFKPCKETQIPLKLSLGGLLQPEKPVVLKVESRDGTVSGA

Cytochrome P450 2C19 = Cytochrome P450 2C19 (Homo sapiens, UniProt P33261); test: Inhibition of CYP2C19 in human liver microsomes by LC-MS/MS analysis; type: ADME
Cytochrome P450 2C19, sequence (P33261 whole entry): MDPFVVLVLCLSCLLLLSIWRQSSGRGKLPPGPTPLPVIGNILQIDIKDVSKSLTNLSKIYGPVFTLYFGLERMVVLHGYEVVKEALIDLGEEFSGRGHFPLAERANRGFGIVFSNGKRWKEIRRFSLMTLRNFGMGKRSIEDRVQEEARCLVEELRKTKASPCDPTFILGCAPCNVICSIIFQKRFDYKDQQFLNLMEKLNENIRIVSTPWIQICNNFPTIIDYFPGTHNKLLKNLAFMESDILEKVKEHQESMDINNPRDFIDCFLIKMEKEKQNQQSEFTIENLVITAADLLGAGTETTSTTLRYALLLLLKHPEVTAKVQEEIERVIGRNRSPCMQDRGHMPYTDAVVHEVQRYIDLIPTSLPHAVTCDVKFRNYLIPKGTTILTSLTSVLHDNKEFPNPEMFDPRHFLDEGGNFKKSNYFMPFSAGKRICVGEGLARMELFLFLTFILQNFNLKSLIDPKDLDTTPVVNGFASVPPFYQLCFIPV

[8] = Metabolic stability in cynomolgus monkey liver microsomes assessed as compound remaining at 10 uM after 120 mins in presence of NADPH by Radio-HPLC analysis; type: ADME, Macaca fascicularis, microsome; settings: read-out: Stability
[9] = Solubility of the compound in FeSSIF after 4 hrs by LC-MS analysis; type: physicochemical
Rattus norvegicus [10] = test: Antianemic activity in po dosed CD(SD) rat assessed as increase in hemoglobin levels administered once daily for 28 days; type: functional, organism-based
[11] = Metabolic stability in Beagle dog liver microsomes assessed as compound remaining at 10 uM after 120 mins in presence of NADPH by Radio-HPLC analysis; type: ADME, Canis lupus familiaris, microsome; settings: read-out: Stability
Cytochrome P450 2C9 = Cytochrome P450 2C9 (Homo sapiens, UniProt P11712); test: Inhibition of CYP2C9 in human liver microsomes by LC-MS/MS analysis; type: ADME
Cytochrome P450 2C9, sequence (P11712 whole entry): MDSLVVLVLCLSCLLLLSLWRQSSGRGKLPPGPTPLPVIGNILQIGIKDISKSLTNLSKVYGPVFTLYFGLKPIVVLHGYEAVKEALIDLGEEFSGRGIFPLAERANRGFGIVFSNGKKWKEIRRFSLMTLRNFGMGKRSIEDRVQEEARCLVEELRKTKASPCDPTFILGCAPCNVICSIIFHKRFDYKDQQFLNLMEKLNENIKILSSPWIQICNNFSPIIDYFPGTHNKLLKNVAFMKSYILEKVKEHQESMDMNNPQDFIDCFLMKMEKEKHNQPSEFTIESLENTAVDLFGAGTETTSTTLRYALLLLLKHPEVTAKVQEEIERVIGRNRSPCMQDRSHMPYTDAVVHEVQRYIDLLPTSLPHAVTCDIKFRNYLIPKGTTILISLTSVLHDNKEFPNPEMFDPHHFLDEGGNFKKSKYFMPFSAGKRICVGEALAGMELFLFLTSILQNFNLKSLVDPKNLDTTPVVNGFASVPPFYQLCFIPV

[12] = Oral bioavailability in CD(SD) rat at 1 mg/kg; type: ADME, organism-based; settings: in vivo
[13] = Solubility of the compound in FaSSIF after 4 hrs by LC-MS analysis; type: physicochemical
Egl nine homolog 1 = Egl nine homolog 1 (Homo sapiens, UniProt Q9GZT9); test: Inhibition of PHD2 in human Hep3B cells assessed as increase in EPO release after 24 hrs by ELISA; type: cell-based
Egl nine homolog 1, sequence (Q9GZT9 whole entry): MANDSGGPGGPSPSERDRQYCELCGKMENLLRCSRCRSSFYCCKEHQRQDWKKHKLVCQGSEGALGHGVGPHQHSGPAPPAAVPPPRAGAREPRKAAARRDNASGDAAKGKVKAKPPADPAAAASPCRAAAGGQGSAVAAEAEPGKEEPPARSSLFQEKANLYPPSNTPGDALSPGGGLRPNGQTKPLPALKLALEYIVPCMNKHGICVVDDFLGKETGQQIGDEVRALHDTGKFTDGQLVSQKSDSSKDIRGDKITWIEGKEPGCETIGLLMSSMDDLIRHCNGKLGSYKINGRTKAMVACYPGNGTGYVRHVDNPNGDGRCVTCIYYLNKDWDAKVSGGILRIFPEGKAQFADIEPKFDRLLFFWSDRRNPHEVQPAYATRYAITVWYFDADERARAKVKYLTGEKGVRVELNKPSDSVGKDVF

Cytochrome P450 2C8 = molecular target: T3, Cytochrome P450 2C8 (Homo sapiens, UniProt P10632); test: Inhibition of CYP2C8 in human liver microsomes by LC-MS/MS analysis; type: ADME
T3 sequence (P10632 whole entry): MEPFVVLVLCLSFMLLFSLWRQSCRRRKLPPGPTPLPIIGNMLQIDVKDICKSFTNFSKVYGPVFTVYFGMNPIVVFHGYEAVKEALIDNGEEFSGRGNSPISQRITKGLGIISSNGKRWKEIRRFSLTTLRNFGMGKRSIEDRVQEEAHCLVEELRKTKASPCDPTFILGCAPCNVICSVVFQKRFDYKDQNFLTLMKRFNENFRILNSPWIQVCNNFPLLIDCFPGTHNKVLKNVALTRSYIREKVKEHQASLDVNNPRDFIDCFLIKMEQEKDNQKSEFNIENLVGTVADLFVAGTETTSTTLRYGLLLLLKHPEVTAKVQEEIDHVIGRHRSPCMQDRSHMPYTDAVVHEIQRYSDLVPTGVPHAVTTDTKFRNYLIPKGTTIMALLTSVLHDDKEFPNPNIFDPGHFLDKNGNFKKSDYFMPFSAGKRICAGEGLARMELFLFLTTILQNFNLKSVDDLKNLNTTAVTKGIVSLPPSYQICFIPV

[14] = Tmax in CD(SD) rat at 1 mg/kg, po; type: ADME, organism-based; settings: in vivo
[15] = MRT in CD(SD) rat at 0.3 mg/kg, iv; type: ADME, organism-based; settings: in vivo
Cytochrome P450 1A2 = molecular target: T4, Cytochrome P450 1A2 (Homo sapiens, UniProt P05177); test: Inhibition of CYP1A2 in human liver microsomes by LC-MS/MS analysis; type: ADME
T4 sequence (P05177 whole entry): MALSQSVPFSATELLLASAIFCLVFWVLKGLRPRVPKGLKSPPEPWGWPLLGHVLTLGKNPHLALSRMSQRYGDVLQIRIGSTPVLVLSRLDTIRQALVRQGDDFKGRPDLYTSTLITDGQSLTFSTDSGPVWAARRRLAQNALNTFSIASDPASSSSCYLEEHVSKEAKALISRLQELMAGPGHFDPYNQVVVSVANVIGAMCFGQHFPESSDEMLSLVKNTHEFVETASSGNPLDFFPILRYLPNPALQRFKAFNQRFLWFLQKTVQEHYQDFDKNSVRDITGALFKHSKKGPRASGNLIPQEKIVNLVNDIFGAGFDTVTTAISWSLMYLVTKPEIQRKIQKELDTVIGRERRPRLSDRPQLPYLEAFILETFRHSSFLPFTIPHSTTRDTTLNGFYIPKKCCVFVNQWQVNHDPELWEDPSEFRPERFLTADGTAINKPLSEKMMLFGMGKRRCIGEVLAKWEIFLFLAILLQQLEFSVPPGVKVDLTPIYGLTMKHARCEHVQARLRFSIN

Rattus norvegicus [16] = test: Upregulation of plasma EPO level in CD(SD) rat at 10 mg/kg, po administered as single dose measured after 8 hrs by RIA; type: functional
[17] = Half life in CD(SD) rat at 0.3 mg/kg, iv; type: ADME, organism-based; settings: in vivo
Rattus norvegicus [18] = test: Antianemic activity in CD(SD) rat assessed as increase in hemoglobin levels at 3 mg/kg, po administered once daily for 28 days; type: functional, organism-based
Rattus norvegicus [19] = test: Antianemic activity in CD(SD) rat assessed as increase in hemoglobin levels at 10 mg/kg, po administered once daily for 28 days; type: functional, organism-based

SMILES: O=C(O)CNC(=O)c1nc(Cl)c2ccccc2c1O
- Papp A→B at 2 h, 25 µM (in vitro): 63 ×10⁻⁶ cm/s

SMILES: Cl.O=C(O)CNC(=O)c1c(O)cc(CCc2ccc(F)cc2)n2ncnc12
- Papp A→B at 2 h, 25 µM (in vitro): 12 ×10⁻⁶ cm/s
- Activity (Mus musculus): 1000 pg/mL

SMILES: Cl.O=C(O)CNC(=O)c1c(O)cc(-c2ccccc2)c2ncnn12
- Papp A→B at 2 h, 25 µM (in vitro): 6.5 ×10⁻⁶ cm/s
- Activity (Mus musculus): <260 pg/mL

SMILES: Cl.O=C(O)CNC(=O)c1c(O)cc(CCc2ccccc2)n2ncnc12
- IC50 [1]: > 100 µM
- Activity (Rattus norvegicus [2]): Non-Toxic
- clearance [3]: 2.7 mL/min/kg
- IC50 (Cytochrome P450 2D6): > 100 µM
- IC50 (Cytochrome P450 3A5): > 100 µM
- Vd [4]: 0.28 L/kg
- IC50 (Cytochrome P450 2A6): > 100 µM
- Cmax [5]: 2700 ng/mL
- remaining at 2 h, 10 µM [6]: 94%
- remaining at 2 h, 10 µM [7]: 98%
- IC50 (Cytochrome P450 2B6): > 100 µM
- IC50 (Cytochrome P450 3A4): > 100 µM
- IC50 (Cytochrome P450 2C19): > 100 µM
- remaining at 2 h, 10 µM [8]: 94%
- solubility at 4 h [9]: 1300 µM
- Activity (Rattus norvegicus [10]): Dose-dependent effect
- Papp A→B at 2 h, 25 µM (in vitro): 13 ×10⁻⁶ cm/s
- remaining at 2 h, 10 µM [11]: 100%
- IC50 (Cytochrome P450 2C9): > 100 µM
- bioavailability [12]: 75%
- Activity (Mus musculus): 6500 pg/mL
- solubility at 4 h [13]: > 2900 µM
- EC50 (Egl nine homolog 1): 5.7 µM
- IC50 (Cytochrome P450 2C8): > 100 µM
- Tmax [14]: 0.33 h
- MRT [15]: 1.8 h
- IC50 (Cytochrome P450 1A2): > 100 µM
- Activity (Rattus norvegicus [16]): 17000 pg/mL
- half-life [17]: 1.4 h

SMILES: O=C(O)CNC(=O)c1c(O)ccn2ccnc12
- Papp A→B at 2 h, 25 µM (in vitro): 0.8 ×10⁻⁶ cm/s

SMILES: Cl.O=C(O)CNC(=O)c1c(O)cc(-c2ccccc2)n2ncnc12
- Papp A→B at 2 h, 25 µM (in vitro): 2.5 ×10⁻⁶ cm/s
- Activity (Mus musculus): <320 pg/mL

SMILES: CCCCc1cc(O)c(C(=O)NCC(=O)O)c2ncnn12.Cl
- Activity (Rattus norvegicus [2]): Non-Toxic
- Activity (Rattus norvegicus [18]): inactive
- Activity (Rattus norvegicus [19]): Active
- Papp A→B at 2 h, 25 µM (in vitro): 9.9 ×10⁻⁶ cm/s
- Activity (Mus musculus): 3700 pg/mL
- Activity (Rattus norvegicus [16]): 2200 pg/mL

SMILES: O=C(O)CNC(=O)c1c(O)cc(-c2cccc(Cl)c2)c2ncnn12
- Papp A→B at 2 h, 25 µM (in vitro): 15 ×10⁻⁶ cm/s
- Activity (Mus musculus): <265 pg/mL

SMILES: CCCCCc1cn2ncnc2c(C(=O)NCC(=O)O)c1O.Cl
- Papp A→B at 2 h, 25 µM (in vitro): 15 ×10⁻⁶ cm/s
- Activity (Mus musculus): <330 pg/mL

SMILES: Cl.O=C(O)CNC(=O)c1c(O)cc(CCc2ccccc2)c2ncnn12
- Papp A→B at 2 h, 25 µM (in vitro): 9.3 ×10⁻⁶ cm/s
- Activity (Mus musculus): <320 pg/mL
